# Results published in US9756864B2.
# Tests used:
# Venturia inaequalis = assay: Venturia test (apples)/preventive; details: preventive spray, 10 days after inoculation
# Protocol: Venturia Test (Apples)/Preventive
# After the spray coating has dried on, the plants are inoculated with an aqueous conidia suspension of the causal agent of apple scab (Venturia inaequalis) and then remain for 1 day in an incubation cabinet at approximately 20° C. and a relative atmospheric humidity of 100%.
# The plants are then placed in a greenhouse at approximately 21° C. and a relative atmospheric humidity of approximately 90%.
# The test is evaluated 10 days after the inoculation.
# Alternaria solani = assay: Alternaria test (tomatoes)/preventive; details: preventive spray, 3 days after inoculation
# Protocol: The application rate of QST30002 refers to the amount of dried Bacillus subtilis AQ30002 aka QST300202 (NRRL Accession No. B-50421.
# After the spray coating has dried on, the plants are inoculated with an aqueous spore suspension of Alternaria solani. The plants are then placed in an incubation cabinet at approximately 20° C. and a relative atmospheric humidity of 100%.
# The test is evaluated 3 days after the inoculation.
# Sphaerotheca fuliginea = assay: Sphaerotheca test (cucumbers)/preventive; details: preventive spray, 7 days after inoculation
# Protocol: Sphaerotheca Test (Cucumbers)/Preventive
# After the spray coating has dried on, the plants are inoculated with an aqueous spore suspension of Sphaerotheca fuliginea. The plants are then placed in a greenhouse at approximately 23° C. and a relative atmospheric humidity of approximately 70%.
# The test is evaluated 7 days after the inoculation.
# Phytophthora infestans = format: in vivo; details: Table A; 100 ppm a.i.; tomatoes, preventive spray; 3 days after inoculation
# Botrytis cinerea = assay: Botrytis test (beans)/preventive; details: Table E, 100 ppm a.i., preventive spray, lesion size 2 days after inoculation
# Protocol: Botrytis Test (Beans)/Preventive
# After the spray coating has dried on, 2 small pieces of agar covered with growth of Botrytis cinerea are placed on each leaf. The inoculated plants are placed in a darkened chamber at 20° C. and a relative atmospheric humidity of 100%.
# 2 days after the inoculation, the size of the lesions on the leaves is evaluated.
compound,measurement,setting,value
"O=C(NCCc1ncc(C(F)(F)F)cc1Cl)c1ccccc1C(F)(F)F [F70 fluopyram, fluopyram]",Efficacy in % found (activity found),"Venturia inaequalis; Table B1, 4 ppm a.i.",4%
same,Efficacy in % found (activity found),"Alternaria solani; Table D1, 4 ppm a.i.",33%
same,Efficacy in % found (activity found),"Sphaerotheca fuliginea; Table C2, 4 ppm a.i.",10%
"CC(C)Oc1cccc(NC(=O)c2ccccc2C(F)(F)F)c1 [F71 flutolanil, flutolanil]",Efficacy in % found (activity found),Phytophthora infestans,33%
same,Efficacy in % found (activity found),Botrytis cinerea,0%
same,Efficacy in % found (activity found),"Venturia inaequalis; Table B2, 100 ppm a.i.",4%
same,Efficacy in % found (activity found),"Alternaria solani; Table D2, 50 ppm a.i.",43%
same,Efficacy in % found (activity found),"Sphaerotheca fuliginea; Table C1, 100 ppm a.i.",0%
"Cn1cc(C(=O)Nc2ccccc2-c2cc(F)c(F)c(F)c2)c(C(F)F)n1 [F72 fluxapyroxad, fluxapyroxad]",Efficacy in % found (activity found),"Venturia inaequalis; Table B1, 0.5 ppm a.i.",43%
same,Efficacy in % found (activity found),"Alternaria solani; Table D1, 1 ppm a.i.",47%
same,Efficacy in % found (activity found),"Sphaerotheca fuliginea; Table C2, 1 ppm a.i.",29%
"Cc1nn(C)c(F)c1C(=O)Nc1ccccc1C(C)CC(C)C (stereo not shown) [F84 penflufen, penflufen]",Efficacy in % found (activity found),"Venturia inaequalis; Table B1, 2 ppm a.i.",0%
same,Efficacy in % found (activity found),"Sphaerotheca fuliginea; Table C2, 2 ppm a.i.",0%
